The record followed here is patent publication US20090011405A1 (priority 2003, published 2009).

Experiment [1] concerns JUN1 and JUNZ (c-Jun self dimerization). Nature of the experiment: Reverse two-hybrid assay with JUN1 and JUNZ, background and plating efficiency. Format: cell-based, yeast. On the procedure: A reverse two-hybrid assay was performed using the interacting proteins JUN1 (amino acids 187-334, inclusive, of the JUN protein) and JUNZ (amino acids 259-309, inclusive, of the JUN protein) both of which comprise the leucine zipper domain of c-Jun (ie the region necessary for self dimerization). As a positive control FOSZ (amino acids 111-195, inclusive, of the FOS protein), a known blocker of c-Jun self dimerization was used. As a negative control, the expression vector alone was used. Gene constructs were transformed into cells comprising the negative selectable markers URA3 and CYH2.
Cells comprising only the interacting partners or the interacting partners and FOSZ (19F) or the interacting partners and the negative control (19) were grown in various concentrations of uracil (from 10 mg/L to 0 mg/L). All cells were also plated in the presence of 0.02% galactose; 0.04% FOA; and 5 μg/ml cycloheximide.
Background was determined by estimating the number of cells (colonies) that expressed only JUN1 and JUNZ and were still capable of growing in the presence of 5-FOA. Plating efficiency was determined by estimating the number of cells out of the 500 plated that expressed JUN1, JUNZ and FOSZ that were capable of growing in each set of conditions.
Using the same expression constructs and cells as in Example 2 cells were plated in the presence of increasing concentrations of 5-FOA and uracil. […]

Experiment [2] has as its target JUN1 (amino acids 187-334, inclusive, of the JUN protein). Nature of the experiment: cell-based or functional assay.
Experiment [3] concerns the target JUNZ (amino acids 259-309, inclusive, of the JUN protein). Briefly: cell-based or functional assay.

Where only a bound is given, the exact number is not on record here.

For `C[C@@H]1C[C@@H]([C@H](O)CC2CC(=O)NC(=O)C2)C(=O)[C@@H](C)C1` [cycloheximide], the “background (effect of increasing cycloheximide concentration)” value in experiment [1] (JUN1/JUNZ cells, 0.2 or 0.5 mg/L uracil, 0.06% 5-FOA, 10000 or 100000 cells plated) is given as “lower levels of background”.

Consider `O=c1cc[nH]c(=O)[nH]1` [uracil], for which, in experiment [1] (JUN1/JUNZ cells, uracil 10 to 0 mg/L, 0.02% galactose, 0.04% FOA, 5 μg/ml cycloheximide), the “background (effect of increased uracil concentration)” value is reported as “increased background”. Also, in experiment [1] (JUN1/JUNZ/FOSZ cells, uracil 10 to 0 mg/L, 0.02% galactose, 0.04% FOA, 5 μg/ml cycloheximide), the “plating efficiency (effect of increased uracil concentration)” value is reported as “reduced plating efficiency”. In experiment [1] (cells expressing only JUN1 and JUNZ, 0.25 and 0.5 mg/L uracil, 0.02% galactose, 0.04% FOA, 5 μg/ml cycloheximide), this molecule showed a background of 0%.

“FOSZ (amino acids 111-195, inclusive, of the FOS protein) (from UniProt P01100 111-195)”: the plating efficiency (cells expressing JUN1, JUNZ and FOSZ that grow under counter-selection) in experiment [2] and in experiment [3] was above 40% in each case.

For “JUN1 (amino acids 187-334, inclusive, of the JUN protein)”, in experiment [3], the background (colonies expressing only JUN1 and JUNZ that still grow in the presence of 5-FOA) is 0%.

B1: FOSZ: amino acids 111-195, inclusive, of the FOS protein, a known blocker of c-Jun self dimerization (protein)
chain: VVKTMTGGRAQSIGRRGKVEQLSPEEEEKRRIRRERNKMAAAKCRNRRRELTDTLQAETDQLEDEKSALQTEIANLLKEKEKLEF
Take B1: in experiment [1] (cells expressing JUN1, JUNZ and FOSZ (19F), 500 plated, low concentrations of uracil, 0.02% galactose, 0.04% FOA, 5 μg/ml cycloheximide), the plating efficiency result was “greater than 40%”.
